Data as given in article PMC10047683, “A Novel Family of Lysosomotropic Tetracyclic Compounds for Treating Leukemia” (Cancers, 2023).

Tests used:
[1] = system: HS-5; experiment: Pancancer cell line panel viability (nontumor line); format: cell-based; conditions: HS-5 (nontumor); 10 µM; 48 h
Description: (§1) First, 2 × 10^5 (72 h assays in cell lines (Supplementary File S1)), 3 × 10^5 (48 h assays in cell lines) or 7.5 × 10^5 (primary AML, healthy donor buffy coats) cells per mL were cultured in 96-well plates, and all drugs were added at the indicated concentrations. In α-tocopherol experiments, cells were treated with growing concentrations of α-tocopherol and EDK drugs for 48 h. In the NAC and 3MA experiments, treatment was simultaneous with EDK compounds. In glucose deprivation experiments, cells were cultivated with a standard medium (glucose high, 2 g/L), a standard medium without glucose, or a standard medium with galactose (2 g/L) and without glucose. Cell viability was measured via 7-AAD (eBioscience) exclusion and Hoechst33342 (Sigma-Aldrich, St. Louis, MO, USA) positivity staining via flow cytometry, and the cell count was obtained through volume. In the experiments with the primary cells, analyses were performed inside the blast population as detected via blast gates (CD45^low SSC^int). For solid tumor cell lines, viability was analyzed using CellTiter-Glo® Luminescent Cell Viability Assay (Promega).
(§2) AML cell lines and cell cultures
(§3) Cell lines HL-60 (ACC-3), KG-1 (ACC-14), MonoMac-1 (ACC-252), Kasumi-1 […]
(§4) obtained from DSMZ. Cell lines THP-1 (TIB-202TM), MCF-7 (HTB-22™), MDA- […]
(§5) 3216™) and HS-5 (CRL-11882™) were obtained from ATCC. HBL-2 cell line was kindly supplied by Dr. Pérez-Galán (IDIBAPS, Barcelona, Spain). SKM-1 and U937 were kindly provided by Dr. Marcus Buschbeck (IJC, Badalona, Spain). All cell lines were cultured in the conditions indicated by the providers, and were tested for mycoplasma on a monthly basis.
(§6) All drugs were resuspended in H2O (Thermo Fischer Scientific), DMSO (Sigma-Aldrich) or ethanol (VWR) according to manufacturer’s specifications. - tocopherol, 3-methyladenine (3MA), arsenic trioxide (ATO) and N-acetyl-L-cysteine (NAC) were purchased from Sigma Aldrich. Chloroquine diphosphate was purchased from Merck. Etoposide and ionomycin were purchased from […]
(§7) (1 picture or pasted object on this page, not shown here)

[2] = system: HEK-293T; experiment: as above; format: cell-based; conditions: HEK-293T (nontumor); 10 µM; 48 h
Description: as §1, §2, §3, §4, §5, §6, §7

[3] = system: TFEB; experiment: TFEB promoter-luciferase reporter; format: cell-based; conditions: HEK293T; 10 and 20 µM, 24 h
Description: We transfected 2.5 × 10^5 HEK-293T cells per condition using the jetPEI DNA transfection reagent (Polyplus) with TFEB promoter-luciferase reporter Addgene#66801. Then, at 24 h post-transfection, cells were treated at the indicated conditions, and the 48 h post-transfection luminescence of lysed cells was analyzed according to the manufacturer’s specifications.

[4] = system: panel of 7 AML cell lines; experiment: Dose-response viability curves, whole panel; format: cell-based; conditions: mean of the 7 AML cell lines; 48 h
Description: as §1

[5] = system: AML cell lines; experiment: Lysosomal mass with Lysotracker probe; format: cell-based; conditions: 10 µM, 24 h
Description: Lysosomal mass was determined using Lysotracker DeepRed (Thermo Fisher, Waltham, MA, USA), and analyzed with cytometry and microscopy, as explained previously. The lysosomal activity assays were performed following the guidance of the study that first introduced the Lysosomal Metriq probe. AML cell lines were lentivirally transduced with the pCW57.1 Lysosomal-METRIQ plasmid (Addgene #135401), and selected with puromycin (2 µg/mL). Cells were treated for 3 consecutive days with 3 µg/mL doxycycline (Sigma Aldrich, St. Louis, MO, USA), incubated with the compounds of interest for 24 h, and analyzed in the flow cytometer. Lysosomal activity was measured as the ratio between red fluorescence (acting as an internal control) and green fluorescence (located in the lysosomes and degraded to different degrees depending on the activity of the lysosomal compartment). For the Galectin 3 puncta assay, AML cell lines were lentivirally transduced with the mAG-Gal3 plasmid (Addgene #62734). Treatments and analysis were performed as described elsewhere. Then, 2 × 10^5 cells per ml were pulsed with dextran-rhodamine (0.25 mg/mL) for 24 h, chased for 2 h, treated with EDK compounds at the indicated concentrations for 48 h, attached to poly-L-lysine (50 μg/mL)-coated chambered coverslips (μ-Slide 8 well, Ibidi), imaged in a Zeiss LSM880 microscope, and analyzed with Fiji software.

[6] = Pharmacokinetic study in mice; format: in vivo, CD-1 mice; conditions: 30 mg/kg orally and subcutaneously
Description: (§8) All ADMET studies were performed in Eurofins Discovery Services (CEREP laboratories, Celle-Lévescault France). The pharmacokinetic studies were performed in Draconis Pharma SL (Barcelona, Spain) in CD-1 mice treated with 30 mg/kg EDK87 or EDK88 via SC or OG. Blood was collected by cardiac puncture at 0.5, 1, 2, 4, or 24 h.

[7] = system: primary AML samples (lineage-depleted umbilical cord blood cells as healthy counterpart); experiment: Clonogenicity assay; format: cell-based, human
Description: 1,000 cells of AML cell lines or 50,000 primary cells (both AML and lin-depleted UCB) were treated at the indicated concentration for 18 h, and cultured in 1 mL of MethoCult H4034 Optimum (StemCell Technologies, Vancouver, BC, Canada).
Colonies were screened based on morphology and cellularity at day 7 (cell lines) […]
Calcium mobilization assay
1 x 10^6 cells per mL were loaded for 30’ at 37 °C with the Fura-2-AM probe (Thermo Fisher) at a final 2 µM concentration in pre-warmed calcium- and magnesium-free Hanks BSA solution. Cells were then washed and resuspended in Hanks BSA solution with calcium and magnesium at 3 x 10^5 cells per mL. In parallel, 50µL of drugs in Hanks BSA solution with calcium and magnesium were added to 96-well black wall clear bottom plates and background fluorescence was read at Ex340/Em508 and Ex380/Em508. Cells were then added to the plate (50µL/well) and fluorescence was acquired at indicated timepoints using a Synergy HT Multi-Detection Microplate Reader (BioTek). For the analysis, all values were subtracted their corresponding background fluorescence, and the ratio 340/380 was calculated. Finally, ratios were normalized to vehicle-treated […]
Semi-Quantitative Real Time PCR

[8] = biological target: T1, hERG (Homo sapiens, UniProt Q12809); experiment: In vitro hERG inhibition; format: biochemical
T1 construct: Eurofins Discovery Services (CEREP laboratories)
T1 sequence (Q12809 whole entry): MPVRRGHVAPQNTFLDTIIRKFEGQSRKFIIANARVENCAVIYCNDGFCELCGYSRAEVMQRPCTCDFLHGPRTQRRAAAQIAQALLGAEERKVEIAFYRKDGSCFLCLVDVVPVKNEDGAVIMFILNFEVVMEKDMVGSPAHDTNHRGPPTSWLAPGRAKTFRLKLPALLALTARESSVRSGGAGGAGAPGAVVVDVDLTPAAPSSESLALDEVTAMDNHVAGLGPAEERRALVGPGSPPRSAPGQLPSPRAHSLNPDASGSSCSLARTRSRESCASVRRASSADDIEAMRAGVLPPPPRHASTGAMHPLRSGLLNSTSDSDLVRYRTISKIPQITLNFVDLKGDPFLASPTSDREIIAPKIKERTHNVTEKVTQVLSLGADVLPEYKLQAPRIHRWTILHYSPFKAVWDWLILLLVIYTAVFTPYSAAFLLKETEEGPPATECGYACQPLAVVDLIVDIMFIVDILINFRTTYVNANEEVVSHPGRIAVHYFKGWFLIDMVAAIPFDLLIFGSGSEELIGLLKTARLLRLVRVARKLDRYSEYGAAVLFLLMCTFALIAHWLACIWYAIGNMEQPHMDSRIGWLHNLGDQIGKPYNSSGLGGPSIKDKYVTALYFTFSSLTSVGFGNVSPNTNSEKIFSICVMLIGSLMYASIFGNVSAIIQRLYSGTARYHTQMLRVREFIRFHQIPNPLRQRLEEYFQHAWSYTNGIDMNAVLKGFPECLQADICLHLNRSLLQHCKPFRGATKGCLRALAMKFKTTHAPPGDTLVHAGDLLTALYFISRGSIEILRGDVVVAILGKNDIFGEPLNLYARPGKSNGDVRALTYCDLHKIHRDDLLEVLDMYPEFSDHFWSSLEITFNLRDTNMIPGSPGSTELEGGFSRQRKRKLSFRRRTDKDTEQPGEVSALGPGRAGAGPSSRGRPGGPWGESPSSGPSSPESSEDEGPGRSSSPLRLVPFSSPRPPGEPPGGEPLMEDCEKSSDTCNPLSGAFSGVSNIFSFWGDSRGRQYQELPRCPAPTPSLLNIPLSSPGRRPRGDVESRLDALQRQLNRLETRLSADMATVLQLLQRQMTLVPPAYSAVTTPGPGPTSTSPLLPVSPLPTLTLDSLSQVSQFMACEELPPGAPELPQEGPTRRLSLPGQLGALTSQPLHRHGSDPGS
Description: as §8

TFEB activity (reporter) [3]: activation of TFEB activity
clearance (PK) [6]: high
plasma level [6]: low
volume of distribution [6]: high
SMILES: CN1CCC(=C2c3ccccc3-c3c2sc2ccccc32)CC1 [EDK-87]
# Live cells refer to control [1]: 71%
# Live cells refer to control [2]: 79%
EC50 [4]: 7.7 ± 0.7 µM
lysosomal mass (Lysotracker) [5]: expansion of the lysosomal mass
clonogenicity, effect in AML ([7]; primary AML samples): 77.9% ± 9.2
therapeutic window (clonogenicity) ([7]; primary AML vs lineage-depleted umbilical cord blood): 3.2
hERG inhibition [8]: concerning results
